The target in this assay is T1, Recombinant human H-PGDS (Homo sapiens, UniProt O60760).
T1 construct: made in house; host or cells: E. coli
Put plainly: H-PGDS inhibitory activity (prostaglandin D2 production from prostaglandin H2, measured by LC-MS/MS). It counts as biochemical. The conditions noted are these: recombinant human H-PGDS 1.0 nM expressed in E. coli; prostaglandin H2 25 μM; preincubated 15 minutes on ice, reacted on ice for 1 minute; concentration that inhibits prostaglandin D2 production by 50%. The essentials:
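Recombinant human H-PGDS (E. coli-expressed, 1.0 nM final) preincubated with compound 15 min on ice in 20 mM Tris-HCl pH 8.0, 2 mM MgCl2, 2 mM GSH, 0.5 mg/mL γ-globulin. Reaction with 25 µM PGH2 run 1 min on ice, stopped with FeCl2/citric acid, PGD2 quantified by LC-MS/MS. Activity expressed as % of DMSO control after subtracting non-enzymatic PGD2.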

The term IC50 denotes the point on the concentration scale where inhibition reaches its midpoint.

T1 sequence (O60760 whole entry): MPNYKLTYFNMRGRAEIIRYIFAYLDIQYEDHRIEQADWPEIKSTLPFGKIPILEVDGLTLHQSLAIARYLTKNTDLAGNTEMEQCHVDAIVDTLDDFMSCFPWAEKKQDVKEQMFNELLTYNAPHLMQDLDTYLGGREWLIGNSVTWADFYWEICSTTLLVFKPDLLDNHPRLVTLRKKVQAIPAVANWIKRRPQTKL

Take `N#Cc1cnc(N2CCC(NC(=O)c3ccc(-c4nccc5occc45)cc3)CC2)nc1` [Example 173, N-[1-(5-cyanopyrimidin-2-yl)piperidin-4-yl]-4-(furo[3,2-c]pyridin-4-yl)benzamide]: the concentration for half-maximal inhibition (IC50) is 0.83 nM. For `CC(C)(O)CNC(=O)c1ccc(-c2nccc3[nH]ccc23)cc1` [Example 32, N-(2-hydroxy-2-methylpropyl)-4-(1H-pyrrolo[3,2-c]pyridin-4-yl)benzamide] the value was 1.5 nM; for `O=C(N[C@H]1CCN(c2cnc(CO)cn2)C1)c1ccc(-c2nccc3occc23)cc1` [Example 198, (S)-4-(furo[3,2-c]pyridin-4-yl)-N-{1-[5-(hydroxymethyl)pyrazin-2-yl]pyrrolidin-3-yl}benzamide], 2.3 nM; for `O=C(Nc1ccc(N2CCC(C(=O)N3CCOCC3)CC2)cc1)c1ccc(-c2nccc3occc23)cc1` [Example 222, 4-(furo[3,2-c]pyridin-4-yl)-N-(4-[4-(morpholine-4-carbonyl)piperidin-1-yl]phenyl)benzamide], 2.3 nM. For `O=C(NC1CCN(c2ccccn2)CC1)c1ccc(-c2nccc3occc23)cc1` [Example 118, 4-(furo[3,2-c]pyridin-4-yl)-N-[1-(pyridin-2-yl)piperidin-4-yl]benzamide] the value was 0.45 nM; for `O=C(N[C@H]1CC[C@H](OCC2(O)CC2)CC1)c1ccc(-c2nccc3occc23)cc1` [Example 258, 4-(furo[3,2-c]pyridin-4-yl)-N-{trans-4-[(1-hydroxycyclopropyl)methoxy]cyclohexyl}benzamide], 0.93 nM. For `O=C(NCc1cnn(CC(F)(F)F)c1)c1ccc(-c2nccc3[nH]ccc23)cc1` [Example 43, 4-(1H-pyrrolo[3,2-c]pyridin-4-yl)-N-{[1-(2,2,2-trifluoroethyl)-1H-pyrazol-4-yl]methyl} benzamide], the concentration for half-maximal inhibition (IC50) was found to be 1.3 nM. For `O=C(N[C@H]1CCN(c2ccnc(F)c2)C1)c1ccc(-c2nccc3occc23)cc1` [Example 196, (S)-N-[1-(2-fluoropyridin-4-yl)pyrrolidin-3-yl]-4-(furo[3,2-c]pyridin-4-yl)benzamide] the value was 1.5 nM; for `O=C(NCc1cccc(OC(F)F)c1)c1ccc(-c2nccc3[nH]ccc23)cc1` [Example 35, N-[3-(difluoromethoxy)benzyl]-4-(1H-pyrrolo[3,2-c]pyridin-4-yl)benzamide], 1.6 nM. For `O=C(N[C@H]1COCCN(c2ncccn2)C1)c1ccc(-c2nccc3occc23)cc1` [Example 225, (R)-4-(furo[3,2-c]pyridin-4-yl)-N-[4-(pyrimidin-2-yl)-1,4-oxazepan-6-yl]benzamide] the value was 6.5 nM.

Turning to `COc1ccc(CN2CCC(NC(=O)c3ccc(-c4nccc5occc45)cc3)CC2)cc1Cl` [Example 244, N-[1-(3-chloro-4-methoxybenzyl)piperidin-4-yl]-4-(furo[3,2-c]pyridin-4-yl)benzamide], the IC50 is 4 nM. Under `Cc1cc(C(=O)N[C@H]2CC[C@H](C(C)(C)O)CC2)ccc1-c1nccc2occc12` [Example 132, 4-(furo[3,2-c]pyridin-4-yl)-N-[trans-4-(2-hydroxypropan-2-yl)cyclohexyl]-3-methylbenzamide] stands 74 nM; under `Cc1nn(C)cc1CNC(=O)c1ccc(-c2nccc3[nH]ccc23)cc1` [Example 39, N-[(1,3-dimethyl-1H-pyrazol-4-yl)methyl]-4-(1H-pyrrolo[3,2-c]pyridin-4-yl)benzamide], 1.1 nM.

As for `O=C(N[C@@H]1CC[C@@H](CO)OC1)c1ccc(-c2nccc3occc23)cc1` [Example 211, 4-(furo[3,2-c]pyridin-4-yl)-N-[(3R,6S)-6-(hydroxymethyl)tetrahydro-2 H-pyran-3-yl]benzamide], the IC50 stood at 2.5 nM. Under `CC(=O)Nc1cnc(N2CCC(NC(=O)c3ccc(-c4nccc5occc45)cc3)CC2)nc1` [Example 189, N-[1-(5-acetamidopyrimidin-2-yl)piperidin-4-yl]-4-(furo[3,2-c]pyridin-4-yl)benzamide] stands 2.3 nM; under `Cc1ccnc(N2CCC(NC(=O)c3ccc(-c4nccc5occc45)cc3)CC2)c1` [Example 150, 4-(furo[3,2-c]pyridin-4-yl)-N-[1-(4-methylpyridin-2-yl)piperidin-4-yl]benzamide], 1.7 nM; under `O=C(N[C@H]1CC[C@H](NCC(F)(F)F)CC1)c1ccc(-c2nccc3occc23)cc1` [Example 119, 4-(furo[3,2-c]pyridin-4-yl)-N-{trans-4-[(2,2,2-trifluoroethyl)amino]cyclohexyl}benzamide], 1.3 nM. In the case of `O=C(NC1CCN(c2cnc(CO)cn2)CC1)c1ccc(-c2nccc3occc23)cc1` [Example 170, 4-(furo[3,2-c]pyridin-4-yl)-N-{1-[5-(hydroxymethyl)pyrazin-2-yl]piperidin-4-yl}benzamide], the IC50 stood at 6.2 nM. For `Cc1cnc(-c2ccc(C(=O)N[C@H]3CC[C@H](C(C)(C)O)CC3)cc2)c2cc[nH]c12` [Example 339, N-[trans-4-(2-hydroxypropan-2-yl)cyclohexyl]-4-(7-methyl-1H-pyrrolo[3,2-c]pyridin-4-yl)benzamide] the value was 1.4 nM.

Consider `[2H]C([2H])([2H])O[C@H]1CC[C@H](NC(=O)c2ccc(-c3nccc4occc34)cc2)CC1` [Example 286, 4-(furo[3,2-c]pyridin-4-yl)-N-[trans-4-(methoxy-d3)cyclohexyl]benzamide], for which the half-inhibitory concentration (IC50) amounted to 1 nM. Turning to `O=C(N[C@@H]1CCN(c2ncccn2)C1)c1ccc(-c2nccc3occc23)cc1` [Example 192, (R)-4-(furo[3,2-c]pyridin-4-yl)-N-[1-(pyrimidin-2-yl)pyrrolidin-3-yl]benzamide], the IC50 was found to be 7.7 nM. As for `CC(C)N(CCNC(=O)c1ccc(-c2nccc3[nH]ccc23)cc1)C(C)C` [Example 25, N-[2-(diisopropylamino)ethyl]-4-(1H-pyrrolo[3,2-c]pyridin-4-yl)benzamide], the half-maximal inhibitory concentration (IC50) was determined as 1.6 nM.

`O=C(NCc1cccc(CO)c1)c1ccc(-c2nccc3occc23)cc1` [Example 66, 4-(furo[3,2-c]pyridin-4-yl)-N-[3-(hydroxymethyl)benzyl]benzamide]: the half-inhibitory concentration (IC50) amounted to 6.4 nM. Under `[2H]C([2H])(O)c1cc2occc2c(-c2ccc(C(=O)N[C@H]3CC[C@H](C(C)(C)O)CC3)cc2)n1` [Example 320, 4-[6-(hydroxymethyl-d2)furo[3,2-c]pyridin-4-yl]-N-[trans-4-(2-hydroxypropan-2-yl)cyclohexyl]benzamide] stands 0.9 nM; under `CCCCNC(=O)c1ccc(-c2nccc3occc23)cc1` [Example 75, N-butyl-4-(furo[3,2-c]pyridin-4-yl)benzamide], 20 nM; under `O=C(NC1CCN(c2ccc(F)cn2)CC1)c1ccc(-c2nccc3occc23)cc1` [Example 149, N-[1-(5-fluoropyridin-2-yl)piperidin-4-yl]-4-(furo[3,2-c]pyridin-4-yl)benzamide], 1.8 nM.

Regarding `CC(C)(O)[C@H]1CC[C@@H](NC(=O)c2ccc(-c3nccc4occc34)cc2)CC1` [Example 354, 4-(furo[3,2-c]pyridin-4-yl)-N-[cis-4-(2-hydroxypropan-2-yl)cyclohexyl]benzamide], the IC50 was determined as 35 nM.

On to `O=C(N[C@H]1CCN(c2ccncn2)C1)c1ccc(-c2nccc3occc23)cc1` [Example 229, (S)-4-(furo[3,2-c]pyridin-4-yl)-N-[1-(pyrimidin-4-yl)pyrrolidin-3-yl]benzamide], for which the half-inhibitory concentration (IC50) is 1.5 nM.
